These are literature values, as cited in US8309351B2, “Methods of identifying agents that inhibit angiogenesis” (Bionomics Limited, priority 2007, dated 2012).

The series concerns lung cancer cells. The settings on record: knock-down of beta III tubulin in lung cancer cells.

Take `CC(=O)O[C@H]1C(=O)[C@@]2(C)[C@H]([C@H](OC(=O)c3ccccc3)[C@]3(O)C[C@H](OC(=O)[C@H](O)[C@@H](NC(=O)c4ccccc4)c4ccccc4)C(C)=C1C3(C)C)[C@]1(OC(C)=O)CO[C@@H]1C[C@@H]2O` [paclitaxel]: the “increase in paclitaxel sensitivity” value was 39%.
